Laboratory results from ChEMBL document CHEMBL4477163, “Rubiaceae-Type Cyclopeptides from Galianthe thalictroides” (2016).
≈ marks a conversion by molar mass, not a printed value.

Columns and labels:
Assay type in all cases: functional
PC-3 = experiment: Cytotoxicity against human PC3 cells by sulforhodamine B assay
786-0 = experiment: Cytotoxicity against human 786-0 cells by sulforhodamine B assay
HT-29 = experiment: Cytotoxicity against human HT-29 cells by sulforhodamine B assay
P388 = experiment: Cytotoxicity against mouse P388 cells at 1 mg/ml relative to control

| Structure (SMILES) | GI50 (PC-3) | GI50 (786-0) | GI50 (HT-29) | T/C (P388) |
| --- | --- | --- | --- | --- |
| COc1ccc(C[C@H]2C(=O)N[C@@H](C)C(=O)N(C)[C@@H]3C(=O)N(C)[C@@H](Cc4ccc(OC)c(c4)Oc4ccc(cc4)[C@@H]3O)C(=O)N[C@H](C)C(=O)N[C@@H](CO)C(=O)N2C)cc1 | 0.26 µg/mL (≈ 0.324 µM) | 1.14 µg/mL (≈ 1.42 µM) | 1.8 µg/mL (≈ 2.24 µM) | – |
| COc1ccc(C[C@H]2C(=O)N[C@@H](C)C(=O)N(C)[C@@H]3C(=O)N(C)[C@@H](Cc4ccc(OC)c(c4)Oc4ccc(cc4)[C@@H]3O)C(=O)N[C@H](C)C(=O)N[C@@H](C)C(=O)N2C)cc1 | 0.06 µg/mL (≈ 0.0763 µM) | 0.07 µg/mL (≈ 0.089 µM) | 0.07 µg/mL (≈ 0.089 µM) | 134% |
| COc1cccc2c1C(=O)c1c(O)c3c(c(O)c1C2=O)C[C@@](O)(C(=O)CO)C[C@@H]3O[C@H]1C[C@H](N)[C@H](O)[C@H](C)O1 [DOXORUBICIN] | 0.35 µg/mL (≈ 0.644 µM) | 0.02 µg/mL (≈ 0.0368 µM) | 0.27 µg/mL (≈ 0.497 µM) | – |
